pIC50: −log10 of the molar value.
Molecular target: not listed separately
Assay: Inhibition of alpha-glucosidase (unknown origin) using p-NPG as substrate preincubated for 5 mins followed by substrate addition and measured after 30 mins by absorbance based analysis
Parameters: species or system Homo sapiens

In order of falling pIC50:
1. O=c1oc2ccccc2cc1-c1nn(C(Nc2ccccc2Oc2ccccc2NC(c2cccc(Br)c2)n2nc(-c3cc4ccccc4oc3=O)oc2=O)c2cccc(Br)c2)c(=O)o1 (configuration not stated)  7.15
2. COc1ccccc1N1C(=O)/C(=C\c2ccc(F)cc2)S/C1=N\NC(=O)c1cc2ccccc2oc1=O  7.05

Molecular target: T1, Alpha-glucosidase (Saccharomyces cerevisiae S288c, UniProt P53341+P38158+P07265)
Assay: Inhibition of Saccharomyces cerevisiae alpha-glucosidase using p-nitrophenyl-alpha-D-glucopyranoside as substrate preincubated for 10 mins followed by substrate addition and measured after 30 mins by absorbance based analysis
Assay type: protein assay

In order of rising IC50:
1. N#Cc1ccc2[nH]c(-c3nnc(Nc4ccc(Cl)c(Cl)c4)s3)cc2c1  0.95 µM
2. O=c1oc2ccc(Br)cc2cc1-c1nn(-c2ccccc2)cc1-c1nc(-c2ccccc2)c(-c2ccccc2)n1-c1ccc(Cl)cc1  2.53 µM
3. O=c1oc2ccccc2cc1-c1nn(-c2ccccc2)cc1-c1nc(-c2ccccc2)c(-c2ccccc2)[nH]1  2.78 µM

Molecular target: not listed separately
Assay: Inhibition of alpha-glucosidase (unknown origin)
Parameters: species or system Homo sapiens

In order of falling pIC50:
1. OCCN1C[C@H](O)[C@@H](O)[C@H](O)[C@H]1CO [MIGLITOL]  6.41
2. Oc1c(Cl)cc(Cl)cc1/C=N/c1nc(-c2ccc(-c3ccccc3)cc2)cs1  6.30
3. CCOC(=O)c1c(-c2ccc(/C=C3/SC(=S)NC3=O)cc2)c2ccccc2n1Cc1ccc(Cl)cc1  6.29
4. Nc1nnc(-c2cccc3cccc(O)c23)o1  6.10
5. CCOC(=O)c1c(-c2ccc(/C=C3/SC(=S)NC3=O)cc2)c2ccccc2n1Cc1ccccc1  6.04
6. Cc1ccoc1-c1cccc(/C=N/NC(=O)c2ccc(-c3cc(=O)c4cc(O)ccc4o3)cc2)c1  5.99
7. O=C(NNS(=O)(=O)c1ccccc1Cl)c1ccc(-c2nnc(-c3ccc([N+](=O)[O-])cc3)o2)cc1  5.96
8. OCCSc1nnc(COc2ccccc2)n1/N=C/c1ccc(O)cc1  5.83
9. CN(C)c1ccc(-c2ccc(/C=N/n3c(COc4ccccc4)nnc3SCCO)cc2)cc1  5.83
10. COc1ccc(/C=N/n2c(COc3ccccc3)nnc2SCCO)cc1  5.83
11. CCOC(=O)C1=C(C)NC2=C(C(=O)CC(C)(C)C2)C1c1cc(OC)c(OC)cc1Br (configuration not stated)  5.64
12. O=[N+]([O-])c1ccccc1/C(CSc1nnc2c(n1)[nH]c1ccccc12)=N\c1nnc(-c2cccc(O)c2)s1  5.60
13. CC(C)Cc1ccc(C(C)c2nnc(SC/C(=N\c3ccc(Cl)c(Cl)c3)c3ccccc3)o2)cc1 (configuration not stated)  5.52
14. CCOC(=O)c1c(-c2ccc(/C=C3/SC(=O)NC3=O)cc2)c2ccccc2n1Cc1ccc(Cl)cc1  5.44
15. O=C(CC(c1cc(Cl)ccc1Cl)c1c[nH]c2ccccc12)c1ccccc1 (configuration not stated)  5.37
16. Fc1ccc(-c2cn3c(Cc4n[nH]c(=S)n4-c4cccc5ccccc45)csc3n2)cc1  5.34
17. CCOC(=O)c1c(-c2ccc(/C=C3/SC(=O)NC3=O)cc2)c2ccccc2n1Cc1ccccc1  5.28
18. Nc1ccc2c(-c3nc4ccc(Br)c(O)c4s3)cc(=O)oc2c1  5.20
19. COc1ccc(-c2coc3cc(OCC(=O)c4ccc(Cl)cc4)ccc3c2=O)cc1  5.20
20. Cc1cc([N+](=O)[O-])ccc1-c1cnc(CC(C)C)s1  5.14
21. COc1cc(OC)c(Br)c(-c2nc3ccc(Br)cc3[nH]2)c1  5.09
22. CCOC(=O)CN1C(=O)/C(=N\NC(=O)c2ccccc2Cl)c2ccccc21  4.88
23. CCOC(=O)CN1C(=O)/C(=N\NC(=O)c2ccc(Cl)cc2)c2ccccc21  4.84
24. O=C1C(=O)N(Cc2cn(CN3C(=O)S/C(=C\c4ccco4)C3=O)nn2)c2ccccc21  4.61
25. COc1cccc(/C=C/c2nc(-c3ccccc3)c3cc(Cl)ccc3n2)c1OS(=O)(=O)c1ccc([N+](=O)[O-])cc1  4.55
26. O=[N+]([O-])c1ccc(S(=O)(=O)Oc2ccc(/C=C/c3nc4ccccc4nc3O)cc2)cc1  4.49
27. CCn1cc(C(=O)OCc2ccccc2Br)c(=O)c2cc(F)c(N3CCN(Cc4ccccc4Br)CC3)nc21  4.34
28. O=C(N/N=C/c1ccc(Cl)cc1)c1cc(-c2ccccc2)[nH]n1  4.22
29. OC[C@H]1CC2C(N=NN2c2ccccc2)[C@@H](O)C1O (some centres not stated)  4.13
30. O=C(CSc1nc2ccccc2c(=O)n1-c1cccc(Br)c1)c1ccc([N+](=O)[O-])cc1  4.07
31. Cc1ccc(-c2cc(C(F)(F)F)nn2-c2ccc(S(=O)(=O)NC(=O)c3ccc(C)c([N+](=O)[O-])c3)cc2)cc1  4.03
32. CCOP(=O)(OCC)C(Nc1ccc(C(F)(F)F)cc1I)c1cc(OC)c(O)c(OC)c1 (configuration not stated)  4.02
33. Cc1cccc(-n2c(-c3ccc(Cl)cc3)cc(C(=O)Nc3ccncc3)c2C)c1  3.93
34. OC[C@H]1NC[C@H](O)[C@@H](O)[C@@H]1O [DUVOGLUSTAT]  3.37
35. COc1ccc(-n2c(SCC(=O)N/N=C/c3ccc(Cl)cc3)nc3ccccc3c2=O)cc1  3.21

Molecular target: T1, Alpha-glucosidase
Assay: Inhibition of Saccharomyces cerevisiae alpha-glucosidase using pNPG as substrate preincubated for 10 mins followed by substrate addition and measured after 20 mins by spectrophotometric analysis
Assay type: protein assay

In order of falling IC50:
1. COc1ccc(C2=NOC(c3ccccc3)N2c2ccc(OC)cc2)cc1 (configuration not stated)  295 µM
2. Fc1ccc(C2=NOC(c3ccccc3)N2c2ccc(F)cc2)cc1 (configuration not stated)  256 µM
3. O=C(COc1ccc(-c2nc(-c3ccccc3)c(-c3ccccc3)[nH]2)cc1)Nc1cccc(Br)c1  90 µM
4. O=C(CSC(=S)Nc1cccc([N+](=O)[O-])c1)c1cc2ccccc2oc1=O  85 µM
5. Cc1ccc(C(c2c(N)c3ccccc3oc2=O)c2c(N)c3ccccc3oc2=O)cc1  20 µM
6. Cc1ccccc1Cn1cc(COc2ccc(C(c3c(O)c4ccccc4oc3=O)C3C(=O)Cc4ccccc4C3O)cc2)nn1 (configuration not stated)  16.4 µM
7. O=C1Cc2ccccc2C(O)C1C(c1ccc(OCc2cn(Cc3ccccc3Cl)nn2)cc1)c1c(O)c2ccccc2oc1=O (configuration not stated)  13 µM

Molecular target: T1, Alpha-glucosidase
Assay: Inhibition of Saccharomyces cerevisiae alpha-glucosidase
Assay type: protein assay

In order of rising IC50:
1. Clc1ccc(/C=N/Nc2nnc(-c3ccccc3)c(-c3ccccc3)n2)cc1  13.09 µM
2. O=c1cc(-c2ccc(OCc3cn(Cc4cc(Cl)ccc4Cl)nn3)cc2)oc2ccccc12  24.37 µM
3. O=c1cc(-c2ccc(OCc3cn(Cc4ccc(Cl)cc4)nn3)cc2)oc2ccccc12  24.77 µM
4. Cc1cc2nc(NC(=O)CN3C(=O)S/C(=C\c4ccc(Cl)cc4)C3=O)sc2cc1C  29.91 µM
5. O=C(N/N=C\c1ccccc1OCCCN1C(=O)c2ccccc2C1=O)c1cc2ccccc2oc1=O  85.2 µM
6. O=C(COc1ccc2ccc(=O)oc2c1)N/N=C\c1cc([N+](=O)[O-])ccc1OCCCN1C(=O)c2ccccc2C1=O  94.2 µM

Molecular target: T1, Alpha-glucosidase
Assay: Competitive inhibition of Saccharomyces cerevisiae alpha-glucosidase using pNPG as substrate assessed as inhibition constant preincubated for 15 mins followed by substrate addition and measured after 20 mins by spectrophotometric analysis
Assay type: protein assay

In order of falling Ki:
1. Cc1ccc(-n2cc(/C=N/NC(=O)Nc3ccccc3)c(-c3ccc([N+](=O)[O-])cc3)n2)cc1  87 µM
2. O=C(COc1ccc(-c2nc(-c3ccccc3)c(-c3ccccc3)[nH]2)cc1)Nc1cccc(Br)c1  86.3 µM
3. O=C(Cn1c(-c2ccc(Cl)cc2)nc2ccccc2c1=O)N/N=C/c1cn(-c2ccccc2)nc1-c1ccc(Br)cc1  56 µM
4. Cc1ccc(C(c2c(N)c3ccccc3oc2=O)c2c(N)c3ccccc3oc2=O)cc1  22.4 µM
5. Cc1ccc(-c2nc3c(C(=O)Nc4ccccc4)c(Nc4ccccc4)nn3c(-c3ccc(Br)cc3)c2N)cc1  12 µM

Molecular target: T1, Alpha-glucosidase
Assay: Inhibition of Saccharomyces cerevisiae alpha-glucosidase using p-nitrophenyl-alpha-D-glucopyranoside as substrate preincubated for 5 mins followed by alpha-glucosidase addition and measured after 15 mins by UV-visible spectrophotometric analysis
Assay type: protein assay

In order of rising IC50:
1. O=C(NNS(=O)(=O)c1ccccc1F)c1cc2cc(F)ccc2[nH]1  3.2 µM
2. O=C(NNS(=O)(=O)c1cccc(F)c1)c1cc2cc(F)ccc2[nH]1  3.2 µM
3. O=C(NNS(=O)(=O)c1ccc(Br)cc1)c1cc2cc(F)ccc2[nH]1  4.7 µM
4. N#Cc1ccc(S(=O)(=O)NNC(=O)c2cc3cc(F)ccc3[nH]2)cc1  6.2 µM
5. O=C(NNS(=O)(=O)c1cccc(Cl)c1)c1cc2cc(F)ccc2[nH]1  7.4 µM
6. O=C(c1ccccc1)c1ccc2nc(-c3ccc(O)cc3)[nH]c2c1  11.02 µM

Molecular target: not listed separately
Assay: Inhibition of alpha-glucosidase (unknown origin) using p-nitrophenyl-alpha-D-glucopyranoside as substrate preincubated for 5 mins followed by substrate addition and measured after 5 mins by spectrophotometric analysis
Parameters: species or system Homo sapiens

In order of rising pIC50:
1. Nc1nnc(-c2ccc(O)cc2)s1  5.57
2. Oc1ccc(/C=N/c2nnc(-c3ccc(Cl)cc3)s2)cc1  5.64
3. COc1ccc(/C(CSc2nc3ccccc3[nH]2)=N/N=C/c2ccc(OC)cc2O)cc1  5.66
4. O=S(=O)(NCCc1c[nH]c2ccccc12)c1cc(F)ccc1Cl  5.80

Molecular target: T1, Alpha-glucosidase
Assay: Inhibition of Saccharomyces cerevisiae alpha-glucosidase using p-nitrophenyl-alpha-D-glucopyranoside as substrate preincubated for 15 mins followed by substrate addition and measured after 30 mins by spectrophotometric analysis
Assay type: protein assay

In order of falling IC50:
1. CC(C)(C)c1ccc(Cn2cc(CCS3=Nc4cc(Cl)ccc4C3)nn2)cc1 (configuration not stated)  20.7 µM
2. Cc1ccc(-c2cc(-c3ccc(Br)cc3)nc(SCc3ccc(Cl)cc3)n2)cc1  19.6 µM
3. CC(=O)CC(c1ccc(Br)cc1)C(C(=O)Nc1ccccn1)C(=O)Nc1ccccn1 (configuration not stated)  12.8 µM
4. O=C1Nc2ccccc2C1(c1cn(Cc2ccccc2F)c2ccccc12)c1cn(Cc2ccccc2F)c2ccccc12  5.98 µM
5. COc1ccc(-c2csc(NC(=O)CSc3nnc(-c4ccc(Br)cc4)c(-c4ccc(Br)cc4)n3)n2)cc1  2.85 µM

Molecular target: T1, Alpha-glucosidase
Assay: Inhibition of Saccharomyces cerevisiae alpha-glucosidase using p-nitrophenyl glucopyranoside as substrate preincubated for 10 mins followed by substrate addition and measured after 20 mins by spectrophotometric analysis
Assay type: protein assay

In order of rising IC50:
1. Cc1ccc(-c2nc3c(C(=O)Nc4ccccc4)c(Nc4ccccc4)nn3c(-c3ccc(Br)cc3)c2N)cc1  15.2 µM
2. Nc1c(-c2ccccc2)nc2nc3cc(Cl)c(Cl)cc3n2c1-c1ccccc1  16.4 µM
3. COc1cccc2cc(-c3nnc(SCc4cn(CC(=O)NCc5ccc(F)cc5)nn4)o3)oc12  40.7 µM
4. O=C(Cn1cc(COc2ccc(-c3nc4ccccc4c(=O)[nH]3)cc2)nn1)Nc1ccccc1  45.3 µM
5. O=C(Cn1c(-c2ccc(Cl)cc2)nc2ccccc2c1=O)N/N=C/c1cn(-c2ccccc2)nc1-c1ccc(Br)cc1  60.5 µM
6. Cc1ccc(-n2cc(/C=N/NC(=O)Nc3ccccc3)c(-c3ccc([N+](=O)[O-])cc3)n2)cc1  65.1 µM
7. CCOC(=O)c1c(-c2ccccc2)nn2c1C=C(c1ccc(O)c(OC)c1)/C2=N/C1CCCCC1  95 µM
8. COc1ccc(CCn2c(SCc3cn(Cc4ccc(Br)cc4)nn3)nc3ccccc3c2=O)cc1OC  192.3 µM

Molecular target: Alpha-glucosidase (Saccharomyces cerevisiae S288c) (UniProt P53341+P38158+P07265)
Assay: Potency index, ratio of acarbose IC50 to test compound IC50 for inhibition of Saccharomyces cerevisiae alpha-glucosidase
Assay type: protein assay

In order of falling Ratio IC50:
1. O=c1cc(-c2ccc(OCc3cn(Cc4ccc(Cl)cc4)nn3)cc2)oc2ccccc12  35
2. O=c1cc(-c2ccc(OCc3cn(Cc4cc(Cl)ccc4Cl)nn3)cc2)oc2ccccc12  35

Organism: Homo sapiens
Assay: Potency index, ratio of acarbose IC50 to test compound IC50 for inhibition of alpha-glucosidase (unknown origin)

In order of rising Ratio IC50:
1. CCOC(=O)CN1C(=O)/C(=N\NC(=O)c2ccccc2Cl)c2ccccc21  2
2. CCOC(=O)CN1C(=O)/C(=N\NC(=O)c2ccc(Cl)cc2)c2ccccc21  2
3. O=[N+]([O-])c1ccccc1/C(CSc1nnc2c(n1)[nH]c1ccccc12)=N\c1nnc(-c2cccc(O)c2)s1  15
4. Fc1ccc(-c2cn3c(Cc4n[nH]c(=S)n4-c4cccc5ccccc45)csc3n2)cc1  47

Molecular target: not listed separately
Assay: Inhibition of Saccharomyces cerevisiae alpha-glucosidase type I using p-nitrophenyl-alpha-D-glucopyranoside as substrate preincubated for 10 mins followed by substrate addition and measured after 30 mins by spectrophotometric analysis

In order of falling pIC50:
1. O=c1c2ccccc2n2ncnc2n1OCc1ccccc1  4.90
2. CCn1c(=O)c2ccccc2n2ncnc12  4.54
3. C/C=C/n1c(=O)c2ccccc2n2ncnc12  4.34
4. CSn1c(=O)c2ccccc2n2ncnc12  4.14
5. CS(=O)(=O)n1c(=O)c2ccccc2n2ncnc12  4.08
